Data on 16 molecules can be found in PubChem BioAssay (NCI).

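Dose response: 5 concentrations. Exposure: 48 h. Format: 96-well plates. Endpoint: linear interpolation; highest concentration if not reached. GI50 is the concentration that inhibits growth by half. TGI denotes the concentration required for complete inhibition of growth.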 Some results are limits rather than exact numbers.

What all share (assay): NCI anticancer screen, dose series, 48 h
For experiment [1], the system named is CCRF-CEM leukemia.
For experiment [2], the system named is HCT-116 colon.
Experiment [3] deals with HL-60(TB) leukemia.
In experiment [4] the test system is IGROV1 ovarian.
Experiment [5] has as its system RXF 393 renal.
Experiment [6] has as its system SF-295 CNS.
For experiment [7], the system named is SN12C renal.
In experiment [8] the test system is SR leukemia.
The subject of experiment [9] is U251 CNS.
For experiment [10], the system named is UACC-257 melanoma.

With `COc1ccc(CN2CCCC(C(=O)c3ccc(C(F)(F)F)cc3)C2)c(O)c1` (stereo not given), the GI50 is 35.2 µM in [1]; 21.2 µM in experiment [2]; 24.9 µM in experiment [3]; 52.6 µM in experiment [4]; 16.9 µM in [5]; 16.8 µM in experiment [6]. Also, the GI50 was 24.4 µM in [7], 18 µM in [8], 26 µM in experiment [9] and 24.2 µM in experiment [10]. For the same molecule, the TGI was more than 100 µM in [1]; more than 100 µM in experiment [2]; 62 µM in experiment [3]; more than 100 µM in experiment [4]; 71.9 µM in experiment [5]; 45.9 µM in experiment [6]. The TGI in [7] was 89.3 µM; in [8], 66.5 µM; in [9], more than 100 µM; in [10], 74.4 µM.

Turning to `CCOC(=O)c1cnc2[nH]ccn2c1=O`, the TGI in [1], in experiment [2], in experiment [3], in [4], in experiment [5] and in experiment [6] was more than 10 µM throughout. Moreover, the TGI in experiment [7], in experiment [8], in [9] and in experiment [10] was more than 10 µM in each case.

Take `CN1CN(c2ccccc2)C2(CCN(CCCC3(c4cccs4)OCCO3)CC2)C1=O`: the TGI in experiment [1], in experiment [2], in experiment [3], in experiment [4], in experiment [5] and in experiment [6] was more than 100 µM in each case. The TGI in [7], in experiment [8], in experiment [9] and in experiment [10] was more than 100 µM in each case.

Regarding `N#Cc1c(O)c2c(c(O)c1C#N)C(=O)c1ccccc1C2=O`, the GI50 in experiment [1] was 2.23 µM; in [2], 1.3 µM; in [3], 1.44 µM; in experiment [4], 2.89 µM; in experiment [5], 1.86 µM; in experiment [6], 1.88 µM. For the same molecule, the GI50 in experiment [7] is 1.82 µM; in [8] it was 1.82 µM; in experiment [9] it was 1.92 µM; in experiment [10], 1.57 µM. The TGI in experiment [1] came to 5.82 µM; in experiment [2], 2.94 µM; in experiment [3], 3.64 µM; in [4], 10.8 µM; in experiment [5], 6.27 µM; in [6], 14.2 µM. The TGI turned out to be 4.04 µM in [7], 5.35 µM in experiment [8], 5.54 µM in [9] and 4.82 µM in experiment [10].

Turning to `C#CC(C)(C)Oc1cc(O)c2c(=O)c3ccccc3n(C)c2c1`, the TGI in experiment [1], in experiment [2], in [3], in experiment [4], in experiment [5] and in experiment [6] was more than 100 µM each time. Also, the TGI in experiment [7] is more than 100 µM; in [8], 35.7 µM; in [9], more than 100 µM; in experiment [10] it was more than 100 µM.

As for `O=[N+]([O-])c1ccc(NSc2ccccc2)cc1`, the TGI in experiment [1] was more than 100 µM; in [2], more than 100 µM; in [3] it was 47.5 µM; in experiment [4], 27.7 µM; in [5], 40.9 µM; in [6], 79 µM. For the same molecule, the TGI is 35.5 µM in experiment [7], 63.2 µM in [8], more than 100 µM in [9] and more than 100 µM in experiment [10].

`Cc1c(C(=O)/C=C/c2cccc3ccccc23)[n+](=O)c2ccccc2n1[O-]`: the TGI in experiment [1] was found to be 16.8 µM; in [2], 18.8 µM; in experiment [3] it was 27.3 µM; in experiment [4], 48.7 µM; in experiment [5], 21.9 µM; in experiment [6] it was 29.7 µM. The TGI amounted to 29.8 µM in experiment [7], 38.2 µM in experiment [8], 29.1 µM in [9] and 26.7 µM in experiment [10].

With `Fc1ccc(-c2nn(-c3ccccc3)cc2-c2nc3ccccc3o2)cc1`, the GI50 in experiment [1] is 3.43 µM; in experiment [2] it was 2.5 µM; in [3], 3.29 µM; in [4], 3.94 µM; in experiment [5] it was 31.6 µM; in [6], 2.32 µM. Also, the GI50 was 6.15 µM in experiment [7], 3.71 µM in [8], 1.93 µM in experiment [9] and 13.3 µM in experiment [10]. Further, the TGI was more than 100 µM in experiment [1]; 20.7 µM in [2]; 9.26 µM in [3]; 39.3 µM in [4]; more than 100 µM in [5]; 8.3 µM in experiment [6]. Moreover, the TGI is 33.5 µM in experiment [7], more than 100 µM in experiment [8], 16.5 µM in experiment [9] and 48.2 µM in experiment [10].

Consider `C1CN2N3CCCC23C1` (stereo not given), for which the TGI in experiment [1], in experiment [2], in experiment [3], in experiment [4], in experiment [5] and in [6] was more than 100 µM each time. Moreover, the TGI in experiment [7], in experiment [8], in experiment [9] and in experiment [10] was more than 100 µM each time.

Regarding `Cn1cc(C2=C(c3ccc(OC[C@@H](O)CO)cc3)C(=O)NC2=O)c2ccccc21`, the GI50 in experiment [1] is more than 25 µM; in [2], more than 25 µM; in experiment [3] it was more than 25 µM; in experiment [4], more than 25 µM; in experiment [5], 16.4 µM; in experiment [6], more than 25 µM. The GI50 in experiment [7], in experiment [8], in [9] and in experiment [10] was more than 25 µM each time. The TGI in [1], in [2], in [3], in experiment [4], in [5] and in experiment [6] was more than 25 µM each time. For the same molecule, the TGI in experiment [7], in experiment [8], in [9] and in [10] was more than 25 µM throughout.

On to `COC(=O)C(CC(=O)c1cc2c(cc1I)OCO2)Cc1cc(OC)c(OC)c(OC)c1I` (stereo not given), for which the TGI in experiment [1], in experiment [2], in experiment [3], in experiment [4], in experiment [5] and in experiment [6] was more than 100 µM throughout. The TGI in experiment [7], in [8], in experiment [9] and in experiment [10] was more than 100 µM each time.

Regarding `O=[N+]([O-])C(=C(Sc1ccccc1)Sc1ccccc1)C(Cl)=C(Cl)Cl`, the TGI came to 0.0419 µM in experiment [1]; 0.125 µM in [2]; 0.813 µM in experiment [3]; 2.95 µM in [4]; 1.99 µM in [5]; 28.3 µM in experiment [6]. Further, the TGI in experiment [7] worked out at 1.35 µM; in experiment [8], 0.564 µM; in [9], 4.21 µM; in [10], 1.1 µM.

Consider `C/C(=N\NC(N)=S)c1ccc(C)cc1C`, for which the TGI is more than 100 µM in experiment [1]; more than 100 µM in [2]; more than 100 µM in experiment [3]; more than 100 µM in experiment [4]; 75.2 µM in experiment [5]; more than 100 µM in experiment [6]. The TGI in experiment [7], in [8], in experiment [9] and in experiment [10] was more than 100 µM each time.

With `N#Cc1cnn2ccn(C3OC(COC(=O)c4ccccc4)C(OC(=O)c4ccccc4)C3OC(=O)c3ccccc3)c12` (stereo not given), the TGI in [1], in [2], in experiment [3], in [4], in experiment [5] and in [6] was more than 21.5 µM throughout. Moreover, the TGI in experiment [7] is more than 21.5 µM; in [8], more than 31.6 µM; in [9], more than 21.5 µM; in experiment [10] it was more than 21.5 µM.

For the molecule `COC(=O)[C@@H](C)C[C@H](Cc1ccccc1)NC(=O)c1nc([C@@H](C[C@H](C(C)C)N(C)C(=O)[C@@H](NC(=O)[C@H]2CCCN2C)C(C)C)OC(C)=O)sc1C`, the GI50 in experiment [1], in experiment [2], in experiment [3], in experiment [4], in experiment [5] and in experiment [6] was less than 0.0025 µM throughout. Moreover, the GI50 in [7] was less than 0.0025 µM; in experiment [8], less than 0.0025 µM; in [9], 0.00347 µM; in experiment [10] it was more than 25 µM. Further, the TGI in experiment [1] was more than 25 µM; in [2], more than 25 µM; in experiment [3], less than 0.0025 µM; in [4], more than 25 µM; in experiment [5] it was more than 25 µM; in experiment [6], more than 25 µM. The TGI in experiment [7], in experiment [8], in experiment [9] and in experiment [10] was more than 25 µM in each case.

For the molecule `CC(=O)OCC1OC(n2c(=S)[nH]c(-c3ccccc3)c(C#N)c2=O)C(OC(C)=O)C(OC(C)=O)C1OC(C)=O` (stereo not given), the TGI in experiment [1], in experiment [2], in [3], in experiment [4], in experiment [5] and in experiment [6] was more than 100 µM throughout. The TGI in [7], in experiment [8], in experiment [9] and in experiment [10] was more than 100 µM throughout.
